The kinase profiling compilation of Christmann-Franck et al. (2016)
“And” between values parts separate entries of the source, which are not always exact repeats. Equal values may be shown once.

What was measured:
Experiment in all cases: radiometric filter-binding kinase assay, Kinase HotSpot
Conditions in all cases: compound 0.5 µM; ATP 10 µM
[1] = target: CDK4 CCND1 (human) (UniProt P24385+P11802)
[2] = target: MARK4 (human) (UniProt Q96L34)
[3] = target: BMX (human) (UniProt P51813)
[4] = target: GSG2 (human) (UniProt Q8TF76)
[5] = target: CAMKK2 (human) (UniProt Q96RR4)
[6] = target: ULK2 (human) (UniProt Q8IYT8)
[7] = target: DYRK1A (human) (UniProt Q13627)
[8] = target: PAK1 (human) (UniProt Q13153)
Chain of PAK1 (human) (Q13153 whole entry, looked up): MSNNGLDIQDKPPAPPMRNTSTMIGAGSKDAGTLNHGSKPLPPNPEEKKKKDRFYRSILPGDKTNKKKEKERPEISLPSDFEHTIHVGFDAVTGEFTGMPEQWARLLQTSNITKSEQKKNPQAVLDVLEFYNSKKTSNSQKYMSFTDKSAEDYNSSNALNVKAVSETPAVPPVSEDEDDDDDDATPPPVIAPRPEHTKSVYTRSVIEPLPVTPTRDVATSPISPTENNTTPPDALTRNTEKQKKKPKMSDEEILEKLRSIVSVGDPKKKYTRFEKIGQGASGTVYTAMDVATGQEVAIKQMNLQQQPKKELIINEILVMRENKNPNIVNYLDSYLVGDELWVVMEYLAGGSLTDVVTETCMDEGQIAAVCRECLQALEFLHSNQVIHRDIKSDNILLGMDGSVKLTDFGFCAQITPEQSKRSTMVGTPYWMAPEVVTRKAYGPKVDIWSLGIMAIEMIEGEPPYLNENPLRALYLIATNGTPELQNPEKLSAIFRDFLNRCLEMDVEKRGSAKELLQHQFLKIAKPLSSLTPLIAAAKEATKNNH

[9] = target: CHUK (human) (UniProt O15111)
[10] = target: TEK (human) (UniProt Q02763)
[11] = target: AXL (human) (UniProt P30530)
[12] = target: CSF1R (human) (UniProt P07333)
Chain of CSF1R (human) (P07333 whole entry, looked up): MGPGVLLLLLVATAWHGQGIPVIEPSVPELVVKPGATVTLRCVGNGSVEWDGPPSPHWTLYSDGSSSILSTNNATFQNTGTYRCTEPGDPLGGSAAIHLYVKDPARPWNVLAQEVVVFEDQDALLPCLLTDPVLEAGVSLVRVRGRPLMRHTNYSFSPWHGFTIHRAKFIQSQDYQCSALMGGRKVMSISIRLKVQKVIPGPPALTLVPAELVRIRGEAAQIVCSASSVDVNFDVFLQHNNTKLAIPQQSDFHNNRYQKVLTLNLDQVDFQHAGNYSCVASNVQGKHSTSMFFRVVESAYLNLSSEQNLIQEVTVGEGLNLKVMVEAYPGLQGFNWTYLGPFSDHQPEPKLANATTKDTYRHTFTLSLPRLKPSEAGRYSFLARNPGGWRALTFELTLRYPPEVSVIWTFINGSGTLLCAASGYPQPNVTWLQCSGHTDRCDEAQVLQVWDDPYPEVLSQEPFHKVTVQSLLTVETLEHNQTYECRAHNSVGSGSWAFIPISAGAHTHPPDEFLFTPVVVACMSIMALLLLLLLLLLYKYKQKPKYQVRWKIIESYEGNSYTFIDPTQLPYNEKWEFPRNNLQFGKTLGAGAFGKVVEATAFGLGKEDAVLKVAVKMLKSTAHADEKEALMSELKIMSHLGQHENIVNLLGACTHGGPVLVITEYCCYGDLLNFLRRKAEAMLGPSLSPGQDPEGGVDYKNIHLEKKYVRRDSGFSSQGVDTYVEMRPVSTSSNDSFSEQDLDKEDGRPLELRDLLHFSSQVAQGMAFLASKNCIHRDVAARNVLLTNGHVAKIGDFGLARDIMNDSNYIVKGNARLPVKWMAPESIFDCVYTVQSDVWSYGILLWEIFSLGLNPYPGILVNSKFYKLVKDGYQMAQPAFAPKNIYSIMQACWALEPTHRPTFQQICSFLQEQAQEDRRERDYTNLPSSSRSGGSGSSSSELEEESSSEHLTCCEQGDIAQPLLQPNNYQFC

[13] = target: CSNK1D (human) (UniProt P48730)
[14] = target: EPHB4 (human) (UniProt P54760)
[15] = target: MAP4K2 (human) (UniProt Q12851)
[16] = target: ABL2 (human) (UniProt P42684)
[17] = target: PRKG1 (human) (UniProt Q13976)
[18] = target: PBK (human) (UniProt Q96KB5)
[19] = target: EPHB2 (human) (UniProt P29323)
[20] = target: MAP3K3 (human) (UniProt Q99759)
Chain of MAP3K3 (human) (Q99759 whole entry, looked up): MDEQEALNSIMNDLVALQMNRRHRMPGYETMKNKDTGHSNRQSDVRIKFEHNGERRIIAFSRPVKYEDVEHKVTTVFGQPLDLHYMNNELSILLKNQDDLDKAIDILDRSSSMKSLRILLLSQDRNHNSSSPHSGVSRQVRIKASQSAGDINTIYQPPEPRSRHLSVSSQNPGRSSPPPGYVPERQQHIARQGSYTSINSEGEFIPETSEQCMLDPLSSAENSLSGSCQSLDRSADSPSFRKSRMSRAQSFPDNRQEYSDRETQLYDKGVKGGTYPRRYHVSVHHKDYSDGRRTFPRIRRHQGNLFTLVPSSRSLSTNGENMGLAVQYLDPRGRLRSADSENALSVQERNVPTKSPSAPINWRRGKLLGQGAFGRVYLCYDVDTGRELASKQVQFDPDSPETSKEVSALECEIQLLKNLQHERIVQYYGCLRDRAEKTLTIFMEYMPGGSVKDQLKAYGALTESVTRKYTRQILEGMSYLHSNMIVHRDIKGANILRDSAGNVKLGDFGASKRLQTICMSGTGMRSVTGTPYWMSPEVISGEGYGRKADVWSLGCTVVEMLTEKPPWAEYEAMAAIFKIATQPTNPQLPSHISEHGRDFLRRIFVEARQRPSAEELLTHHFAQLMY

[21] = target: MST1R (human) (UniProt Q04912)
[22] = target: JAK1 JH1 catalytic (human) (UniProt P23458)
[23] = target: PRKCE (human) (UniProt Q02156)
[24] = target: PRKX (human) (UniProt P51817)
Chain of PRKX (human) (P51817 whole entry, looked up): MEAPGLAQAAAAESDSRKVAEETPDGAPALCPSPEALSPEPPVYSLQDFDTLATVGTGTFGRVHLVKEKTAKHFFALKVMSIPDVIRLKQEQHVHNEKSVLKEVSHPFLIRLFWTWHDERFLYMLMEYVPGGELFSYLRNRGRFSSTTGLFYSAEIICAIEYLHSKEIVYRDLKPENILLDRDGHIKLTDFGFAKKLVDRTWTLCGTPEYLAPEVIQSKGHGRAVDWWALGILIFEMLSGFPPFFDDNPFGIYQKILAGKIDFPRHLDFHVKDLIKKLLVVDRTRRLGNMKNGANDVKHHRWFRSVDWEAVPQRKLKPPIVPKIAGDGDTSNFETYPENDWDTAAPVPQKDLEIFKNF

[25] = target: TEC (human) (UniProt P42680)
[26] = target: DYRK2 (human) (UniProt Q92630)
Chain of DYRK2 (human) (Q92630 whole entry, looked up): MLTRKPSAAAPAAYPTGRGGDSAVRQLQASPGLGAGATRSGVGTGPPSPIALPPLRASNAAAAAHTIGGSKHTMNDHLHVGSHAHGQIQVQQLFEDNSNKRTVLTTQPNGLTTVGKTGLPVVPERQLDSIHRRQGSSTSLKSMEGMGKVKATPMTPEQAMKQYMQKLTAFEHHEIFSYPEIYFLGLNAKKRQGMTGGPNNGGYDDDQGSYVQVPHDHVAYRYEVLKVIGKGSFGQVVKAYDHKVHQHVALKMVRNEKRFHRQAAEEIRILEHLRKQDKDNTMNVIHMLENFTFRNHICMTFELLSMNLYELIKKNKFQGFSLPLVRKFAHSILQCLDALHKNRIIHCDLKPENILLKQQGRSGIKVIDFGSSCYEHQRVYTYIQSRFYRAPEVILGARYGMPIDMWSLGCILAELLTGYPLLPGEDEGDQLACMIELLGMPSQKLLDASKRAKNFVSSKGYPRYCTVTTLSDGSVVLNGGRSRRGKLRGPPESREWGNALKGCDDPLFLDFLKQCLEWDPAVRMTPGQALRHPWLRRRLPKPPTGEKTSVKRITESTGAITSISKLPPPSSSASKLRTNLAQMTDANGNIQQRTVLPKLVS

[27] = target: PRKCI (human) (UniProt P41743)
[28] = target: OXSR1 (human) (UniProt O95747)
[29] = target: JAK2 JH1 JH2 (human) (UniProt O60674)
[30] = target: IGF1R (human) (UniProt P08069)
[31] = target: MAPK11 (human) (UniProt Q15759)
Chain of MAPK11 (human) (Q15759 whole entry, looked up): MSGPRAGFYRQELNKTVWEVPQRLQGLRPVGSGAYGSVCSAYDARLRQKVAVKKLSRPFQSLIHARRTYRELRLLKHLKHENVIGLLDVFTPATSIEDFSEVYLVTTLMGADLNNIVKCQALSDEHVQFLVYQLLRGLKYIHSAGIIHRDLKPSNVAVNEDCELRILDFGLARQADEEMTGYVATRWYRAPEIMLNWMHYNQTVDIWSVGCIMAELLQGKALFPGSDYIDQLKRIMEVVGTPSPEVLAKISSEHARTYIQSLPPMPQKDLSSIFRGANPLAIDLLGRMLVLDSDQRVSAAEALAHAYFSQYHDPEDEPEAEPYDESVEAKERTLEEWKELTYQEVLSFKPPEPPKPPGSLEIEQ

[32] = target: PRKG2 (human) (UniProt Q13237)
[33] = target: CHEK2 (human) (UniProt O96017)
[34] = target: BRAF (human) (UniProt P15056)
Chain of BRAF (human) (P15056 whole entry, looked up): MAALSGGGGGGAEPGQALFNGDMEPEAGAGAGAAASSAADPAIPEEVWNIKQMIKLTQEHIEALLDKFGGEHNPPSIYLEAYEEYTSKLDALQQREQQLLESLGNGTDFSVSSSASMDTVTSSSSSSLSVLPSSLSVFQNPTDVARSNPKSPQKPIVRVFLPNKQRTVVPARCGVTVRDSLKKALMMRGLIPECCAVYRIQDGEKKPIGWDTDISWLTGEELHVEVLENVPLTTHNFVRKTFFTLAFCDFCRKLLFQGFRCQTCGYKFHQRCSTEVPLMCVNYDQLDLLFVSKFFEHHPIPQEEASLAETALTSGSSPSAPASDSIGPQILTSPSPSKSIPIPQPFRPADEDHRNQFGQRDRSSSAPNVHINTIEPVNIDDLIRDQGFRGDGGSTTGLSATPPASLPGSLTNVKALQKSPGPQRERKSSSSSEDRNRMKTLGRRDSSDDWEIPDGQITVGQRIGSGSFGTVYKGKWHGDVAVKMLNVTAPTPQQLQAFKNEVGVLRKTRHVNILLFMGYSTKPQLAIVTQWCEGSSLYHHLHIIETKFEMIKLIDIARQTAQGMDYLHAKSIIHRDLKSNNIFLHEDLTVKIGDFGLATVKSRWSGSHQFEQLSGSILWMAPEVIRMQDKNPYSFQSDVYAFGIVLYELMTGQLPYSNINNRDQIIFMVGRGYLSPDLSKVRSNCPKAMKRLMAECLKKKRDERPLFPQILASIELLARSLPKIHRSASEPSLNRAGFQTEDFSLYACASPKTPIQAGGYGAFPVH

[35] = target: CLK1 (human) (UniProt P49759)
[36] = target: NEK2 (human) (UniProt P51955)

Chain of BMX (human) (P51813 whole entry, looked up): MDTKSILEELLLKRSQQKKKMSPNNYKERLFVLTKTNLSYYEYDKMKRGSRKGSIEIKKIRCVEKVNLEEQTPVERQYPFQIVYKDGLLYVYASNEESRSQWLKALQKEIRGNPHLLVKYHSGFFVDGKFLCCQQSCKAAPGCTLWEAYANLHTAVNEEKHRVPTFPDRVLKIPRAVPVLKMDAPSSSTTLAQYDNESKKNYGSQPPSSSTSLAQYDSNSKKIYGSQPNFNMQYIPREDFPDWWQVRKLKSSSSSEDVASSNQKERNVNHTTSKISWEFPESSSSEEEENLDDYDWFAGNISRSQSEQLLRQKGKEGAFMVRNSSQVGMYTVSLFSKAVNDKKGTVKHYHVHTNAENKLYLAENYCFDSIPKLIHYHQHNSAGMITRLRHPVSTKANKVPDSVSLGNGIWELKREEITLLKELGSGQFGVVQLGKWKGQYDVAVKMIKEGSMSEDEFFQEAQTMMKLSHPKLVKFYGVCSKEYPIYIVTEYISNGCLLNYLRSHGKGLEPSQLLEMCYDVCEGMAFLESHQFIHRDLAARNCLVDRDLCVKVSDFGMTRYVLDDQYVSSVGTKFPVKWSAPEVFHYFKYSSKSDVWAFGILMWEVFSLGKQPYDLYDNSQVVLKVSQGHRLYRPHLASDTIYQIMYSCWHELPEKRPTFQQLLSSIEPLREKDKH

| SMILES | residual activity [2] [%] | residual activity [3] [%] | residual activity [4] [%] | residual activity [5] [%] | residual activity [6] [%] | residual activity [7] [%] | residual activity [8] [%] | residual activity [9] [%] | residual activity [10] [%] | residual activity [11] [%] | residual activity [12] [%] | residual activity [15] [%] | residual activity [16] [%] | residual activity [17] | residual activity [18] [%] | residual activity [19] [%] | residual activity [20] [%] | residual activity [21] [%] | residual activity [22] [%] | residual activity [23] [%] | other results |
| --- | --- | --- | --- | --- | --- | --- | --- | --- | --- | --- | --- | --- | --- | --- | --- | --- | --- | --- | --- | --- | --- |
| CCn1cnc2c(Nc3cccc(Cl)c3)nc(N[C@@H]3CCCC[C@@H]3N)nc21 | 95.5 | 90.7 | 90.4 | 86.1 | 94.2 | 100 | 88.8 | 91.7 | 99.9 | 98.7 | 94.2 | 87.4 | 65.7 | 91.4% and 91.8% | 105 | 82.9 | 103 | 99.6 | 98.6 | 90.6 | residual activity [1]: 89.9%; residual activity [13]: 97.8%; residual activity [14]: 70.8%; residual activity [24]: 102%; residual activity [25]: 123%; residual activity [26]: 107%; residual activity [27]: 99.7%; residual activity [28]: 92.3%; residual activity [29]: 104%; residual activity [30]: 51.8%; residual activity [31]: 94.1%; residual activity [32]: 74.3%; residual activity [33]: 79.9%; residual activity [34]: 93%; residual activity [35]: 89.3%; residual activity [36]: 100% |
| Nc1nnc2[nH]c3ccccc3nc1-2 | 99.8 | 99.5 | 82.1 | 98.8 | 95.9 | 95.1 | 97.1 | 85.9 | 97 | 91.3 | 95.3 | 91.7 | 95.5 | 93% and 97.7% | 106 | 103 | 103 | 105 | 99.8 | 86.4 | residual activity [1]: 92.4%; residual activity [13]: 94.2%; residual activity [14]: 84.9%; residual activity [24]: 102%; residual activity [25]: 108%; residual activity [26]: 91.6%; residual activity [27]: 103%; residual activity [28]: 92.7%; residual activity [29]: 105%; residual activity [30]: 97.5%; residual activity [31]: 93.8%; residual activity [32]: 66.7%; residual activity [33]: 94.4%; residual activity [34]: 102%; residual activity [35]: 99.2%; residual activity [36]: 99.6% |
| COc1ccc(OC)c2c(=S)c3ccccc3[nH]c12 | 95.7 | 105 | 89.2 | 108 | 94.7 | 103 | 89.2 | 94.3 | 100 | 103 | 93.4 | 96.5 | 92.5 | 101% and 94.4% | 107 | 94.9 | 117 | 87.9 | 102 | 93.3 | residual activity [1]: 93.5%; residual activity [13]: 101%; residual activity [14]: 91.1%; residual activity [24]: 93.5%; residual activity [25]: 147%; residual activity [26]: 96.8%; residual activity [27]: 99.3%; residual activity [28]: 90.6%; residual activity [29]: 96%; residual activity [30]: 97.2%; residual activity [31]: 86.7%; residual activity [32]: 62.2%; residual activity [33]: 117%; residual activity [34]: 88.5%; residual activity [35]: 98.4% |
| COc1ccc(CNC(=O)Nc2ncc([N+](=O)[O-])s2)cc1 | 92.2 | 90.8 | 90 | 92.7 | 93.4 | 95.6 | 94.2 | 97.1 | 94 | 92 | 99.2 | 113 | 97.9 | 95.9% and 97.3% | 110 | 88.4 | 87.6 | 98.4 | 94.2 | 92.4 | residual activity [1]: 97.3%; residual activity [14]: 100%; residual activity [24]: 72.1%; residual activity [25]: 97.7%; residual activity [26]: 103%; residual activity [27]: 94.4%; residual activity [28]: 95.9%; residual activity [29]: 104%; residual activity [30]: 101%; residual activity [31]: 95.4%; residual activity [32]: 100%; residual activity [33]: 99.2%; residual activity [34]: 93.4%; residual activity [35]: 106%; residual activity [36]: 99.1% |
| CC(C)[C@H](CO)Nc1nc(Nc2cc(N)cc(Cl)c2)c2ncn(C(C)C)c2n1 | 71.2 | 81.9 | 99.9 | 33.2 | 74.9 | 57.1 | 81.8 | 97.3 | 92.5 | 93.1 | 71.1 | 90.7 | 21.3 | 102% and 104% | 75.6 | 73.6 | 100 | 122 | 101 | 105 | residual activity [13]: 65.7%; residual activity [14]: 58.4%; residual activity [24]: 101%; residual activity [25]: 130%; residual activity [26]: 93.2%; residual activity [27]: 89.6%; residual activity [28]: 100%; residual activity [29]: 100%; residual activity [30]: 73%; residual activity [31]: 96.3%; residual activity [32]: 88.8%; residual activity [33]: 96.3%; residual activity [34]: 97.5%; residual activity [35]: 51.9%; residual activity [36]: 94.4% |
| Cn1cnc2cc3c(Nc4cccc(Br)c4)ncnc3cc21 | 105 | 96.6 | 89.4 | 99.6 | 74.8 | 106 | 91.4 | 89.7 | 98.9 | 101 | 94.4 | 90.4 | 37 | 97.8% and 98% | 102 | 76.2 | 109 | 96.5 | 96.4 | 87.8 | residual activity [1]: 84%; residual activity [13]: 93.9%; residual activity [24]: 101%; residual activity [25]: 123%; residual activity [26]: 95.5%; residual activity [27]: 100%; residual activity [28]: 94.6%; residual activity [29]: 103%; residual activity [30]: 102%; residual activity [31]: 85.9%; residual activity [32]: 63.6%; residual activity [33]: 101%; residual activity [34]: 94.2%; residual activity [35]: 102%; residual activity [36]: 103% |
